From patent US8445674B2, “Heterocyclyl compounds” (Hoffmann-La Roche Inc, priority 2009, dated 2013)

target: T1, human chemokine receptor 2 isoform B (Homo sapiens, UniProt P41597); experiment: Calcium mobilization assay (FLIPR, antagonist activity against MCP-1); type: cell-based; details: Ca mobilisation assay, CHOK1-CCR2B-A5 cells, inhibition of calcium increase induced by 20 nM MCP-1
T1 construct: host or cells: CHOK1-CCR2B-A5 cells (CHO-K1)
T1 sequence (P41597 1-360 isoform P41597-2): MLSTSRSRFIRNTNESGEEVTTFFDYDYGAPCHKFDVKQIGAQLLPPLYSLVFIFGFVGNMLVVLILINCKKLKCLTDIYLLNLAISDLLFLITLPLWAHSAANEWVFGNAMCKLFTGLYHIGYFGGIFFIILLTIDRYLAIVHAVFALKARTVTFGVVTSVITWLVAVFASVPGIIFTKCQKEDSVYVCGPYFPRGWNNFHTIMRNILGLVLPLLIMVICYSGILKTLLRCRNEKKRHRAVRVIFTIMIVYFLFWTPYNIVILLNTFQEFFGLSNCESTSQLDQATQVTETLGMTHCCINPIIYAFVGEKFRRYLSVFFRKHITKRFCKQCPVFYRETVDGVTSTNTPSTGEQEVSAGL
Method in brief: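 CHOK1 cells stably overexpressing human CCR2B, loaded with 4 μM Fluo-4 for 2 h at 30° C, compounds added and agonist signal read by FLIPR for 80 s. After 20-30 min at 30° C, 20 nM MCP-1 was added and fluorescence read again. IC50 is 50% inhibition of specific calcium increase (max minus basal).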

| SMILES | IC50 [nM] |
| --- | --- |
| O=C1CCN(C(=O)Nc2ccc(Cl)c(C(F)(F)F)c2)CCN1CCCC(=O)N1CCC2(CC2)[C@H](O)C1 [Example 118, 4-[4-((S)-4-Hydroxy-6-aza-spiro[2.5]oct-6-yl)-4-oxo-butyl]-5-oxo-[1,4] diazepane-1-carboxylic acid (4-chloro-3-trifluoromethyl-phenyl)-amide] | 51.7 |
| O=C1CCN(C(=O)Nc2ccc(C(F)(F)F)c(Cl)c2)CCN1CCCC(=O)N1CCC2(CC2)[C@H](O)C1 [Example 119, 4-[4-((S)-4-Hydroxy-6-aza-spiro[2.5]oct-6-yl)-4-oxo-butyl]-5-oxo-[1,4] diazepane-1-carboxylic acid (3-chloro-4-trifluoromethyl-phenyl)-amide] | 17.6 |
| C[C@H]1C(=O)N(CCCC(=O)N2CCC3(CC3)[C@H](O)C2)C(C(N)=O)CN1C(=O)Nc1ccc(Cl)c(Cl)c1 (stereo partly drawn) [Example 121, (3RS,6S)-4-[4-((S)-4-Hydroxy-6-aza-spiro[2.5]oct-6-yl)-4-oxo-butyl]-6-methyl-5-oxo-piperazine-1,3-dicarboxylic acid 3-amide 1-[(3,4-dichloro-phenyl)-amide]] | 11 |
| O=C1CCN(c2ccc(OC(F)(F)F)c(Cl)c2)CCN1CCCC(=O)N1CCC2(CC2)[C@H](O)C1 [Example 122, 1-(3-Chloro-4-trifluoromethoxy-phenyl)-4-[4-((S)-4-hydroxy-6-aza-spiro[2.5]oct-6-yl)-4-oxo-butyl]-[1,4]diazepan-5-one] | 167 |
| COC(=O)[C@H](CCC(=O)N1CCC2(CC2)[C@H](O)C1)N1CCN(c2ccc(C(F)(F)F)c(Cl)c2)CCC1=O [Example 123, (S)-2-[4-(3-Chloro-4-trifluoromethyl-phenyl)-7-oxo-[1,4]diazepan-1-yl]-5-((S)-4-hydroxy-6-aza-spiro[2.5]oct-6-yl)-5-oxo-pentanoic acid methyl ester] | 63.1 |
| O=C(CC[C@@H](CO)N1CCN(c2ccc(C(F)(F)F)c(Cl)c2)CCC1=O)N1CCC2(CC2)[C@H](O)C1 [Example 124, 1-(3-Chloro-4-trifluoromethyl-phenyl)-4-[(S)-4-((S)-4-hydroxy-6-aza-spiro[2.5]oct-6-yl)-1-hydroxymethyl-4-oxo-butyl]-[1,4]diazepan-5-one] | 8 |
| C[C@@H]1CN(CCCC(=O)N2CCC3(CC3)[C@H](O)C2)C(=O)C=CN1c1ccc(Cl)c(C(F)(F)F)c1 [Example 125, (R)-1-(4-Chloro-3-trifluoromethyl-phenyl)-4-[4-((S)-4-hydroxy-6-aza-spiro[2.5]oct-6-yl)-4-oxo-butyl]-2-methyl-1,2,3,4-tetrahydro-[1,4]diazepin-5-one] | 2750 |
| C[C@@H]1CN(CCCC(=O)N2CCC3(CC3)[C@H](O)C2)C(=O)CCN1c1ccc(Cl)c(C(F)(F)F)c1 [Example 126, (R)-1-(4-Chloro-3-trifluoromethyl-phenyl)-4-[4-((S)-4-hydroxy-6-aza-spiro[2.5]oct-6-yl)-4-oxo-butyl]-2-methyl-[1,4]diazepan-5-one] | 2670 |
| COC(=O)[C@H](CCC(=O)N1CCC2(CC2)[C@H](O)C1)N1CC(C)N(c2ccc(C(F)(F)F)c(C(F)(F)F)c2)CCC1=O (stereo partly drawn) [Example 127, (S)-2-[(R,S)-4-(3,4-Bis-trifluoromethyl-phenyl)-3-methyl-7-oxo-[1,4]diazepan-1-yl]-5-((S)-4-hydroxy-6-aza-spiro[2.5]oct-6-yl)-5-oxo-pentanoic acid methyl ester] | 191 |
| C[C@@H]1CN([C@H](CO)CCC(=O)N2CCC3(CC3)[C@H](O)C2)C(=O)CCN1c1ccc(C(F)(F)F)c(C(F)(F)F)c1 [Example 128, (R)-1-(3,4-bis-trifluoromethyl-phenyl)-4-[(S)-4-((S)-4-hydroxy-6-aza-spiro[2.5]oct-6-yl)-1-hydroxymethyl-4-oxo-butyl]-2-methyl-[1,4]diazepan-5-one] | 4.6 |
| C[C@H]1C(=O)N(CCCC(=O)N2CCC3(CC3)[C@H](O)C2)CCN1c1ccc(C(F)(F)F)c(C(F)(F)F)c1 [Example 130, (S)-4-(3,4-Bis-trifluoromethyl-phenyl)-1-[4-((S)-4-hydroxy-6-aza-spiro[2.5]oct-6-yl)-4-oxo-butyl]-3-methyl-piperazin-2-one] | 36.8 |
| C[C@H]1C(=O)N(C[C@@H](O)CC(=O)N2CCC3(CC3)[C@H](O)C2)CCN1c1ccc(C(F)(F)F)c(Cl)c1 [Example 131, (S)-4-(3-Chloro-4-trifluoromethyl-phenyl)-1-[(S)-2-hydroxy-4-((S)-4-hydroxy-6-aza-spiro[2.5]oct-6-yl)-4-oxo-butyl]-3-methyl-piperazin-2-one] | 13.1 |
| COC[C@H](CCC(=O)N1CCC2(CC2)[C@H](O)C1)N1CCN(c2ccc(C(F)(F)F)c(Cl)c2)[C@@H](C)C1=O [Example 132, (S)-4-(3-Chloro-4-trifluoromethyl-phenyl)-1-[(S)-4-((S)-4-hydroxy-6-aza-spiro[2.5]oct-6-yl)-1-methoxymethyl-4-oxo-butyl]-3-methyl-piperazin-2-one] | 310 |
| C[C@H]1C(=O)N(CCC(O)C(=O)N2CCC3(CC3)[C@H](O)C2)CCN1C(=O)Nc1ccc(C(F)(F)F)c(Cl)c1 (stereo partly drawn) [Example 133, (S)-4-[(R,S)-3-Hydroxy-4-((S)-4-hydroxy-6-aza-spiro[2.5]oct-6-yl)-4-oxo-butyl]-2-methyl-3-oxo-piperazine-1-carboxylic acid (3-chloro-4-trifluoromethyl-phenyl)-amide] | 134 |
| C[C@H]1C(=O)N(CC[C@H](O)C(=O)N2CCC3(CC3)[C@H](O)C2)CCN1C(=O)Nc1ccc(C(F)(F)F)c(Cl)c1 [Example 134, (S)-4-[(S)-3-Hydroxy-4-((S)-4-hydroxy-6-aza-spiro[2.5]oct-6-yl)-4-oxo-butyl]-2-methyl-3-oxo-piperazine-1-carboxylic acid (3-chloro-4-trifluoromethyl-phenyl)-amide] | 188 |
| C[C@H]1C(=O)N(CCC(O)C(=O)N2CCC3(CC3)[C@H](O)C2)CCN1C(=O)Nc1ccc(C(F)(F)F)c(C(F)(F)F)c1 (stereo partly drawn) [Example 135, (S)-4-[(R,S)-3-Hydroxy-4-((S)-4-hydroxy-6-aza-spiro[2.5]oct-6-yl)-4-oxo-butyl]-2-methyl-3-oxo-piperazine-1-carboxylic acid (3,4-bis-trifluoromethyl-phenyl)-amide] | 62.2 |
| C[C@H]1C(=O)N(CCC(F)C(=O)N2CCC3(CC3)[C@H](O)C2)CCN1C(=O)Nc1ccc(C(F)(F)F)c(Cl)c1 (stereo partly drawn) [Example 136, (S)-4-[(R,S)-3-Fluoro-4-((S)-4-hydroxy-6-aza-spiro[2.5]oct-6-yl)-4-oxo-butyl]-2-methyl-3-oxo-piperazine-1-carboxylic acid (3-chloro-4-trifluoromethyl-phenyl)-amide] | 4.7 |
| COC[C@H](CCC(=O)N1CCC2(CC2)[C@H](O)C1)N1CCN(C(=O)Nc2ccc(C(F)(F)F)c(Cl)c2)[C@@H](C)C1=O [Example 139, (S)-4-[(S)-4-((S)-4-Hydroxy-6-aza-spiro[2.5]oct-6-yl)-1-methoxymethyl-4-oxo-butyl]-2-methyl-3-oxo-piperazine-1-carboxylic acid (3-chloro-4-trifluoromethyl-phenyl)-amide] | 152 |
| C[C@H]1C(=O)N([C@@H](CCC(=O)N2CCC3(CC3)[C@H](O)C2)C(=O)O)CCN1C(=O)Nc1ccc(C(F)(F)F)c(Cl)c1 [Example 140, (S)-2-[(S)-4-(3-Chloro-4-trifluoromethyl-phenylcarbamoyl)-3-methyl-2-oxo-piperazin-1-yl]-5-((S)-4-hydroxy-6-aza-spiro[2.5]oct-6-yl)-5-oxo-pentanoic acid] | 751 |
| C[C@H]1C(=O)N([C@@H](CCC(=O)N2CCC3(CC3)[C@H](O)C2)C(N)=O)CCN1C(=O)Nc1ccc(C(F)(F)F)c(Cl)c1 [Example 141, (S)-4-[(S)-1-Carbamoyl-4-((S)-4-hydroxy-6-aza-spiro[2.5]oct-6-yl)-4-oxo-butyl]-2-methyl-3-oxo-piperazine-1-carboxylic acid (3-chloro-4-trifluoromethyl-phenyl)-amide] | 500 |
| CNC(=O)[C@H](CCC(=O)N1CCC2(CC2)[C@H](O)C1)N1CCN(C(=O)Nc2ccc(C(F)(F)F)c(Cl)c2)[C@@H](C)C1=O [Example 142, (S)-4-[(S)-4-((S)-4-Hydroxy-6-aza-spiro[2.5]oct-6-yl)-1-methylcarbamoyl-4-oxo-butyl]-2-methyl-3-oxo-piperazine-1-carboxylic acid (3-chloro-4-trifluoromethyl-phenyl)-amide] | 1320 |
| COC(=O)[C@H](CCC(=O)N1CCC2(CC2)[C@H](O)C1)N1CCN(C(=O)Nc2ccc(C(F)(F)F)c(C(F)(F)F)c2)[C@@H](C)C1=O [Example 143, (S)-2-[(S)-4-(3,4-Bis-trifluoromethyl-phenylcarbamoyl)-3-methyl-2-oxo-piperazin-1-yl]-5-((S)-4-hydroxy-6-aza-spiro[2.5]oct-6-yl)-5-oxo-pentanoic acid methyl ester] | 337 |
| C[C@H]1C(=O)N([C@H](CO)CCC(=O)N2CCC3(CC3)[C@H](O)C2)CCN1C(=O)Nc1ccc(C(F)(F)F)c(C(F)(F)F)c1 [Example 144, (S)-4-[(S)-4-((S)-4-Hydroxy-6-aza-spiro[2.5]oct-6-yl)-1-hydroxymethyl-4-oxo-butyl]-2-methyl-3-oxo-piperazine-1-carboxylic acid (3,4-bis-trifluoromethyl-phenyl)-amide] | 4.5 |
